Test results: patent US7090861B2, “Sustained release delivery systems for solutes” (Farrington Pharmaceuticals, LLC, priority 2000, dated 2006)
Where two headings read alike, the source gives them in different places.

Legend:
[1] = cited from earlier work
[2] = Cumulative release of albumin from a controlled-release device; type: physicochemical
Protocol: Bovine serum albumin (MW 68,000) was dissolved in phosphate buffered saline and loaded into a device designed to deliver a loading dose. After an initial burst release, the rate becomes constant. Data are plotted as the cumulated delivery of albumin over time, measured as described for FIG. 5. Approximately 10 mg was delivered in 24 hours.

Molecule | absorption, share of the total ([1]; ileum) [%] | absorption, share of the total ([1]; jejunum) [%] | absorption, share of the total ([1]; stomach) [%] | release kinetics of albumin ([2]; after an initial burst release) | cumulated delivery of albumin ([2]; in 24 hours, device designed to deliver a loading dose)
[Ca+2] [calcium] | 60 | 20 | < 2 | – | –
Bovine serum albumin: Bovine serum albumin (MW 68,000) in phosphate buffered saline, loaded into a device designed to deliver a loading dose | – | – | – | zero order rate release of albumin over a duration of 24 hours | Approximately 10 mg
